Calls of active or inactive are those of the source. For most assays here, no stated cut-off is given here; in the data, actives have a measured Kd and inactives only a lower limit.
What was measured:
[1] = molecular target: Serine/threonine-protein kinase MRCK gamma (Homo sapiens, UniProt Q6DT37)
[2] = molecular target: Fibroblast growth factor receptor 1 (Homo sapiens, UniProt P11362)
[3] = molecular target: Glycogen synthase kinase-3 alpha (Homo sapiens, UniProt P49840)
[4] = molecular target: T1, Mitogen-activated protein kinase kinase kinase kinase 2 (Homo sapiens, UniProt Q12851)
T1 sequence (Q12851 whole entry): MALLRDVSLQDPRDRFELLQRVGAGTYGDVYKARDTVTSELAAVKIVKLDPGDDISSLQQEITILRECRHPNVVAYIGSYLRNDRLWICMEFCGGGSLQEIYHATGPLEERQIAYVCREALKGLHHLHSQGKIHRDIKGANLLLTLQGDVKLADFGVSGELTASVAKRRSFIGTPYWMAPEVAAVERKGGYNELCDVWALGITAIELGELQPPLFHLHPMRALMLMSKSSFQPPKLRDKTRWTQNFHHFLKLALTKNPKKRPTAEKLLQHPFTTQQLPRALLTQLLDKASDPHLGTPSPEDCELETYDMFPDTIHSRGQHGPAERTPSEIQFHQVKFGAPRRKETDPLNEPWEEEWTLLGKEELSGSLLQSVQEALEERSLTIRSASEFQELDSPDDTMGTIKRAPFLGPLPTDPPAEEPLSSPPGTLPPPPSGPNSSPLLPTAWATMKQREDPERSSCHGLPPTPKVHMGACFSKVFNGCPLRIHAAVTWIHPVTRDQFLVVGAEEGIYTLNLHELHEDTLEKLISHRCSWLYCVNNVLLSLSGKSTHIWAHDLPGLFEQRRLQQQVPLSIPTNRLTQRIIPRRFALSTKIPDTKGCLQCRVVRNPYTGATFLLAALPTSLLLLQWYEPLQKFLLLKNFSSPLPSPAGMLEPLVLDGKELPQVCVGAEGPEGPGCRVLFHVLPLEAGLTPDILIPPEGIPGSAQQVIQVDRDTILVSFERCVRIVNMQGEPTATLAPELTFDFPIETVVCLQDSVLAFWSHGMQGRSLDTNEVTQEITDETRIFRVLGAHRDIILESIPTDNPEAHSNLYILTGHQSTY

[5] = molecular target: T2, DNA replication licensing factor MCM4 (Homo sapiens, UniProt P33991)
T2 sequence (P33991 whole entry): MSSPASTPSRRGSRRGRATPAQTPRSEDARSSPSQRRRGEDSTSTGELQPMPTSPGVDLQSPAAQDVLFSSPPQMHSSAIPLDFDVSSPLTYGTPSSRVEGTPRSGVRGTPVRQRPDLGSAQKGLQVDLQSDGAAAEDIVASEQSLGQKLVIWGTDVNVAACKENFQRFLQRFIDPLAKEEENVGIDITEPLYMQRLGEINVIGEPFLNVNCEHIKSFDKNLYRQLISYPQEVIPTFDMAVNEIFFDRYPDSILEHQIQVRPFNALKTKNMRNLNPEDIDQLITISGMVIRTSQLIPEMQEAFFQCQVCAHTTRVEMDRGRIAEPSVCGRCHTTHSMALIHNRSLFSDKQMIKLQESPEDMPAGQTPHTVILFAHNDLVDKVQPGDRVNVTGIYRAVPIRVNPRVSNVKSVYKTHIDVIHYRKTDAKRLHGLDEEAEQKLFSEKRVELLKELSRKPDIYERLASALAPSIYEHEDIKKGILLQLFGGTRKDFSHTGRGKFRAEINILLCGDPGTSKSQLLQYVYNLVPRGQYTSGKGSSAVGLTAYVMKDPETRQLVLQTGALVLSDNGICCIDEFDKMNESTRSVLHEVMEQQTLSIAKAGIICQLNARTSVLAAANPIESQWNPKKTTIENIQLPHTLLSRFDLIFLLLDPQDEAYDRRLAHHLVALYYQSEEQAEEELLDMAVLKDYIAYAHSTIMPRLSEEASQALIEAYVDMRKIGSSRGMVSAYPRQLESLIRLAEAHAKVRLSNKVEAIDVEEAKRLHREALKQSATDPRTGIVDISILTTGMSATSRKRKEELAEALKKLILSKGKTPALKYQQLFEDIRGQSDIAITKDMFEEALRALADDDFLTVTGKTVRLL

[6] = molecular target: T3, Ribosyldihydronicotinamide dehydrogenase [quinone] (Homo sapiens, UniProt P16083)
T3 sequence (P16083 whole entry): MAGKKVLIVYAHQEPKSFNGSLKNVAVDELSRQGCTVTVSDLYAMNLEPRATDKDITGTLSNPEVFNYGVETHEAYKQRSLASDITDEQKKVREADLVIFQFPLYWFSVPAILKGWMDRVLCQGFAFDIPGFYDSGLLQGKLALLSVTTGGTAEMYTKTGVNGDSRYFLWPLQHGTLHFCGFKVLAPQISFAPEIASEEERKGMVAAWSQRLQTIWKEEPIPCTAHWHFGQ

[7] = molecular target: Protein-tyrosine kinase 6 (Homo sapiens, UniProt Q13882)
[8] = molecular target: GTP-binding nuclear protein Ran (Homo sapiens, UniProt P62826)
[9] = molecular target: T4, STE20-related kinase adapter protein alpha (Homo sapiens, UniProt Q7RTN6)
T4 sequence (Q7RTN6 whole entry): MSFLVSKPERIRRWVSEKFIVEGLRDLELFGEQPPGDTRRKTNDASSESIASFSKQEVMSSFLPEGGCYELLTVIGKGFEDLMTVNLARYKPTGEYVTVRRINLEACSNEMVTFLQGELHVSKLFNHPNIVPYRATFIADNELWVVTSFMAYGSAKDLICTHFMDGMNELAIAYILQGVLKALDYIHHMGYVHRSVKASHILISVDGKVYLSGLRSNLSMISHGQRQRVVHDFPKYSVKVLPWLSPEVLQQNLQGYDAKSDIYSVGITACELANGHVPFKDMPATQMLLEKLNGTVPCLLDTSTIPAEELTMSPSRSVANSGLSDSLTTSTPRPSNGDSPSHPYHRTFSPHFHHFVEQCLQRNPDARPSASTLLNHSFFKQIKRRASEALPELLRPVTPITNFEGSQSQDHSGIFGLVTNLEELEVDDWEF

Measured: Kd

Chain of Glycogen synthase kinase-3 alpha (P49840 whole entry): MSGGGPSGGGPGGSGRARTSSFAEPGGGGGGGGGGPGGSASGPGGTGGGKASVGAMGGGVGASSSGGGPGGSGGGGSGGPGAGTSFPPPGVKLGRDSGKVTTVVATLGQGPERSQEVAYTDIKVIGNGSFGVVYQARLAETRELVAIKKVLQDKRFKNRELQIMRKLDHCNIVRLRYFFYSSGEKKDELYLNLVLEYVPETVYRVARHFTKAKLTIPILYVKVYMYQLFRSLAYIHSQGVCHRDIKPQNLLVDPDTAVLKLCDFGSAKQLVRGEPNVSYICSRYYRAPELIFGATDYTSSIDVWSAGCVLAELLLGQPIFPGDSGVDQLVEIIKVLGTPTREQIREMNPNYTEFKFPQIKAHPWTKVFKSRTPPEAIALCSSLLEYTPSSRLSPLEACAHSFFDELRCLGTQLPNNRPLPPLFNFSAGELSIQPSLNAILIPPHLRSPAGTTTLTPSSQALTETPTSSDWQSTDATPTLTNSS
Chain of Protein-tyrosine kinase 6 (Q13882 whole entry): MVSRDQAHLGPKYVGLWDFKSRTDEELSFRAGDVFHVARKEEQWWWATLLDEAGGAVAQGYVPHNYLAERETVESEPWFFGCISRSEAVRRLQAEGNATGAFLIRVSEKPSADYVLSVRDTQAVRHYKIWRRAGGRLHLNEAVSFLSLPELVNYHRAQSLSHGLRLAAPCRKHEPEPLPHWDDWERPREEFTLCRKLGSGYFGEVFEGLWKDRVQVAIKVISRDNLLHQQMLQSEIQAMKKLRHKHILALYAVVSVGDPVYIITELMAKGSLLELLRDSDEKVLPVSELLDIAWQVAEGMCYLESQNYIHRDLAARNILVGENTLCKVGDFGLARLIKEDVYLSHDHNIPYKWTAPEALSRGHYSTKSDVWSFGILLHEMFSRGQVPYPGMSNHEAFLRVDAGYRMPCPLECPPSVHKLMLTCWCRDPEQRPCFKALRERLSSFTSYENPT
Chain of Serine/threonine-protein kinase MRCK gamma (Q6DT37 whole entry): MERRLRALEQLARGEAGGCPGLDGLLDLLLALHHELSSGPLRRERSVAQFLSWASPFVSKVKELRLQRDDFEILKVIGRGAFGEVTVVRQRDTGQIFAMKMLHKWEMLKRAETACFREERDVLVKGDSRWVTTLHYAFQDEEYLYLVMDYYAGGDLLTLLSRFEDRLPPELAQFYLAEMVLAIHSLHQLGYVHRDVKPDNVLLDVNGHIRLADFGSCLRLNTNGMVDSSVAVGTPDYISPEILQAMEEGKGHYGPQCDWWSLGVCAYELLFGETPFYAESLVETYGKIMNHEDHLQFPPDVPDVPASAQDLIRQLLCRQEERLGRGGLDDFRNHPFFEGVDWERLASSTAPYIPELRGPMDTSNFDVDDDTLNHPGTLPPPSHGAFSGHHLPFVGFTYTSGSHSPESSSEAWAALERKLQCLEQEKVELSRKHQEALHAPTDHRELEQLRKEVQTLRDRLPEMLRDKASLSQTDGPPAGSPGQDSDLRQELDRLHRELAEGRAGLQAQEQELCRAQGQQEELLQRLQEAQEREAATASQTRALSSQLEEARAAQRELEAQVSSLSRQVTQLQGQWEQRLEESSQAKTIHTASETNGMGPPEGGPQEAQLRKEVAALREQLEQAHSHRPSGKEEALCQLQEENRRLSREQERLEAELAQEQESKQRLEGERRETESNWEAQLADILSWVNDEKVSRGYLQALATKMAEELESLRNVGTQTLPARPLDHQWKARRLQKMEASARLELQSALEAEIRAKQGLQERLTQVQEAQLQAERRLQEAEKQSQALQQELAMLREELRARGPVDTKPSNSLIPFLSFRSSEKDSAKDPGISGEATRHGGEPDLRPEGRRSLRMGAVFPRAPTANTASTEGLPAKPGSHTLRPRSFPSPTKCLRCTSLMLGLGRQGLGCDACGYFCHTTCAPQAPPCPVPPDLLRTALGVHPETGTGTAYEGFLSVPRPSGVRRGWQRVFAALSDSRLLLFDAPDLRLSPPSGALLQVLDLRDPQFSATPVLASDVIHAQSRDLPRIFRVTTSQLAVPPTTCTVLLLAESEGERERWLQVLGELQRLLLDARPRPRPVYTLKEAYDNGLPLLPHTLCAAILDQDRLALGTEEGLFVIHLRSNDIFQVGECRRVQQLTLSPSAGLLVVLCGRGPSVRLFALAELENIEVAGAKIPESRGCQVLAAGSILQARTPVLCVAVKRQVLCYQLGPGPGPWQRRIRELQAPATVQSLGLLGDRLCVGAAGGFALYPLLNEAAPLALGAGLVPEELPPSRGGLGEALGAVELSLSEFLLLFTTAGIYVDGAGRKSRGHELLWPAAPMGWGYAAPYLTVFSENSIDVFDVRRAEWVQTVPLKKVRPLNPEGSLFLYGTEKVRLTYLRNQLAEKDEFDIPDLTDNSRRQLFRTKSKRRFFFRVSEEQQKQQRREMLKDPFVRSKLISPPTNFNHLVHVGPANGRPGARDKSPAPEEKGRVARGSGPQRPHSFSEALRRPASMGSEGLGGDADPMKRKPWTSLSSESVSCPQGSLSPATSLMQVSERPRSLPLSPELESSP
Chain of Fibroblast growth factor receptor 1 (P11362 whole entry): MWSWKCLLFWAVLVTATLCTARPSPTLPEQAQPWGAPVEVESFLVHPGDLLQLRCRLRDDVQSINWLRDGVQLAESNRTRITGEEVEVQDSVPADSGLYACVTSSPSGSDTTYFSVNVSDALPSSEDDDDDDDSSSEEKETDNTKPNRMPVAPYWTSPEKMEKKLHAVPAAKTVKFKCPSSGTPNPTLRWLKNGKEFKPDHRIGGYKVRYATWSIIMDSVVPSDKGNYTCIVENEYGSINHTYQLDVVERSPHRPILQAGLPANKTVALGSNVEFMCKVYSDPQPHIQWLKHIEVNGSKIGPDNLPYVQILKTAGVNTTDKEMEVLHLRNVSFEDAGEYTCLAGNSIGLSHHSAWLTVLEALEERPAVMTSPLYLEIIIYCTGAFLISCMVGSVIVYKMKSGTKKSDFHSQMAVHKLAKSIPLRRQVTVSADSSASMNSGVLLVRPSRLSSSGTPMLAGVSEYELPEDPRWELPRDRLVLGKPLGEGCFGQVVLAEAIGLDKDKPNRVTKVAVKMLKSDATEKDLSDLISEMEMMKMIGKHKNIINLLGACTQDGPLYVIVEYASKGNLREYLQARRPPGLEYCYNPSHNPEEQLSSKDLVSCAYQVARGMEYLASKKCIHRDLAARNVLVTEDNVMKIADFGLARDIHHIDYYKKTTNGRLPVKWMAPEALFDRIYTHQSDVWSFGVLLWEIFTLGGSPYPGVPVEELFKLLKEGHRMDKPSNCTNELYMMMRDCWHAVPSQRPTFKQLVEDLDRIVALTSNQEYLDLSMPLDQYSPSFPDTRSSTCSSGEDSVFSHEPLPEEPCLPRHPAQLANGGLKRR

CO[C@H]1C[C@@H]2CC[C@@H](C)[C@@](O)(O2)C(=O)C(=O)N2CCCC[C@H]2C(=O)O[C@H]([C@H](C)C[C@@H]2CC[C@@H](OC(=O)C(C)(CO)CO)[C@H](OC)C2)CC(=O)[C@H](C)/C=C(\C)[C@@H](O)[C@@H](OC)C(=O)[C@H](C)C[C@H](C)/C=C/C=C/C=C/1C [TEMSIROLIMUS]
inactive: [1] > 30 µM | [2] > 30 µM | [3] > 30 µM | [4] > 30 µM | [5] > 30 µM | [6] > 30 µM | [7] > 30 µM | [8] > 30 µM | [9] > 30 µM

COc1cc2c(Nc3ccc(Cl)c(Cl)c3F)ncnc2cc1OC[C@@H]1C[C@@H]2CN(C)C[C@@H]2C1 [TESEVATINIB]
active: [7] 0.172 µM
inactive: [1] > 30 µM | [2] > 30 µM | [3] > 30 µM | [4] > 30 µM | [5] > 30 µM | [6] > 30 µM | [8] > 30 µM | [9] > 30 µM

O=C(Cc1ccc(-c2ccc(OCCN3CCOCC3)cc2)cn1)NCc1ccccc1 [TIRBANIBULIN]
inactive: [1] > 30 µM | [2] > 30 µM | [3] > 30 µM | [4] > 30 µM | [5] > 30 µM | [6] > 30 µM | [7] > 30 µM | [8] > 30 µM | [9] > 30 µM

O=C1NC(=O)[C@@H](c2cn3c4c(cccc24)CCC3)[C@@H]1c1c[nH]c2ccccc12 [TIVANTINIB]
inactive: [1] > 30 µM | [2] > 30 µM | [3] > 30 µM | [4] > 30 µM | [5] > 30 µM | [6] > 30 µM | [7] > 30 µM | [8] > 30 µM | [9] > 30 µM

C[C@@H](NC(=O)c1ncnc(N)c1Cl)c1ncc(C(=O)Nc2cc(C(F)(F)F)c(Cl)cn2)s1 [TOVORAFENIB]
inactive: [1] > 30 µM | [2] > 30 µM | [3] > 30 µM | [4] > 30 µM | [5] > 30 µM | [6] > 30 µM | [7] > 30 µM | [8] > 30 µM | [9] > 30 µM

Cc1cc(Nc2ncnc3ccc(NC4=NC(C)(C)CO4)cc23)ccc1Oc1ccn2ncnc2c1 [TUCATINIB]
inactive: [1] > 30 µM | [2] > 30 µM | [3] > 30 µM | [4] > 30 µM | [5] > 30 µM | [7] > 30 µM | [8] > 30 µM | [9] > 30 µM
active: [6] 2.46 µM

CN1C/C=C/CCOc2cccc(c2)-c2ccnc(n2)Nc2cccc(c2)C1 [ZOTIRACICLIB]
active: [3] 0.579 µM | [4] 1.36 µM
inactive: [1] > 30 µM | [2] > 30 µM | [5] > 30 µM | [6] > 30 µM | [7] > 30 µM | [8] > 30 µM | [9] > 30 µM

Source: ChEMBL document CHEMBL3991601, “The target landscape of clinical kinase drugs” (Science, 2017)
